In brackets after ≈: the same amount, converted by molar mass.
How the values were obtained:
A375 melanoma cells [1] = test: Cell viability by cell counting, trypan blue exclusion method; assay type: cell-based; conditions: Homo sapiens, A-375, 48 h, percentage of cells alive relative to negative control DMSO (100%)
Aqueous solubility = assay type: physicochemical; conditions: aqueous medium (not further specified), read-out: Solublity
CHOP in Kyse 70 cells = test: CHOP induction (ER stress marker), western blot, Kyse70; assay type: cell-based, human; design: key: −: No induction of CHOP; +: Induction of CHOP; ++: Significant induction of CHOP; +++: Strong induction of CHOP; conditions: Kyse70 (serum free), 24 h
CHOP in SH10TC cells = test: CHOP induction (ER stress marker), western blot, SH10TC; assay type: cell-based, human; design: key: −: No induction of CHOP; +: Induction of CHOP; ++: Significant induction of CHOP; +++: Strong induction of CHOP; conditions: SH10TC (serum free), 24 or 48 h
A375 melanoma cells [2] = test: IC50 determination in A375 cells, blue trypan exclusion; assay type: cell-based, human; conditions: Homo sapiens, A-375; A375, serum free, 24 h
[3] = tested on: CHOP in A375 melanoma cells; test: CHOP induction (ER stress marker), western blot, A375; assay type: cell-based, human; design: key: −: No induction of CHOP; +: Induction of CHOP; ++: Significant induction of CHOP; +++: Strong induction of CHOP; conditions: A375 (serum free), 24 h
CHOP in KATO III cells = test: CHOP induction (ER stress marker), western blot, Kato III; assay type: cell-based, human; design: key: −: No induction of CHOP; +: Induction of CHOP; ++: Significant induction of CHOP; +++: Strong induction of CHOP; conditions: Kato III (1% SVF), 24 or 48 h

solubility (Aqueous solubility) | Structure (SMILES) | viability at 10 µM (A375 melanoma cells [1]) | viability at 1 µM (A375 melanoma cells [1]) | viability at 5 µM (A375 melanoma cells [1]) | other results
 | COc1ccc(-c2csc(NC(C)=O)n2)cc1NS(=O)(=O)c1cccc2c(N(C)C)cccc12 [PB600, N-(4-(3-((5-(dimethylamino)naphthalene)-1-sulfonamido)-4-methoxyphenyl)thiazol-2-yl)acetamide] | 48.8 ± 4.3% |  |  | 
5.2 ± 1.9 µM (≈ 3.19 µg/mL) | CN(C)c1cccc2c(S(=O)(=O)Nc3cc(-c4csc(NC(=O)CN5CCN(CCO)CC5)n4)ccc3F)cccc12 [PB601, N-(4-(3-((5-(dimethylamino)naphthalene)-1-sulfonamido)-4-fluorophenyl)thiazol-2-yl)-2-(4-(2-hydroxyethyl)piperazin-1-yl)acetamide] | 10.2 ± 2.7% | 47.2 ± 6.7% | 22.5 ± 5.3% | 
3.4 ± 0.7 µM (≈ 2.12 µg/mL) | COc1ccc(-c2csc(NC(=O)CN3CCN(CCO)CC3)n2)cc1NS(=O)(=O)c1cccc2c(N(C)C)cccc12 [PB602, N-(4-(3-((5-(dimethylamino)naphthalene)-1-sulfonamido)-4-methoxyphenyl)thiazol-2-yl)-2-(4-(2-hydroxyethyl)piperazin-1-yl)acetamide] | 1 ± 1% | 47.6 ± 2.4% | 1.7 ± 0.9% | 
 | COCCOc1ccc(-c2csc(NC(C)=O)n2)cc1NS(=O)(=O)c1cccc2c(N(C)C)cccc12 [PB603, N-(4-(3-((5-(dimethylamino)naphthalene)-1-sulfonamido)-4-(2-methoxyethoxy)phenyl)thiazol-2-yl)acetamide] | 43.1 ± 8.7% |  |  | 
4.1 ± 0.4 µM (≈ 2.74 µg/mL) | COCCOc1ccc(-c2csc(NC(=O)CN3CCN(CCO)CC3)n2)cc1NS(=O)(=O)c1cccc2c(N(C)C)cccc12 [PB604, N-(4-(3-((5-(dimethylamino)naphthalene)-1-sulfonamido)-4-(2-methoxyethoxy)phenyl)thiazol-2-yl)-2-(4-(2-hydroxyethyl)piperazin-1-yl)acetamide] | 16.3 ± 9.8% | 57.7 ± 16.5% | 19 ± 8.6% | 
2.8 ± 0.5 µM (≈ 1.56 µg/mL) | CN(C)c1cccc2c(S(=O)(=O)Nc3cccc(-c4csc(NC(=O)COCC(O)CO)n4)c3)cccc12 (centres unmarked) [PB605, 2-(2,3-dihydroxypropoxy)-N-(4-(3-((5-(dimethylamino)naphthalene)-1-sulfonamido)phenyl)thiazol-2-yl)acetamide] | 6.4 ± 0.6% | 64.5 ± 4.3% | 29.4 ± 9.8% | 
 | CN(C)c1cccc2c(S(=O)(=O)Nc3cccc(-c4csc(NC(=O)CCCCCNC(=O)OC(C)(C)C)n4)c3)cccc12 [PB624, Tert-butyl(6-((4-(3-((5-(dimethylamino)naphthalene)-1-sulfonamido)phenyl)thiazol-2-yl)amino)-6-oxohexyl)carbamate] | 33.3 ± 5.5% |  | 87.8 ± 16.2% | 
 | CCOC(=O)CCCC(=O)Nc1nc(-c2cccc(NS(=O)(=O)c3cccc4c(N(C)C)cccc34)c2)cs1 [PB625, Ethyl 5-((4-(3-((5-(dimethylamino)naphthalene)-1-sulfonamido)phenyl)thiazol-2-yl)amino)-5-oxopentanoate] | 36.5 ± 7.5% |  | 93 ± 3% | 
 | CN(C)c1cccc2c(S(=O)(=O)Nc3cccc(-c4csc(NC(=O)CCCNC(=O)OC(C)(C)C)n4)c3)cccc12 [PB631, Tert-butyl (4-((4-(3-((5-(dimethylamino)naphthalene)-1-sulfonamido)phenyl)thiazol-2-yl)amino)-4-oxobutyl)carbamate] | 35.4 ± 14.2% |  | 31.3 ± 4.9% | 
 | CC(=O)NCCCC(=O)Nc1nc(-c2cccc(NS(=O)(=O)c3cccc4c(N(C)C)cccc34)c2)cs1 [PB633] | 43.8 ± 12.7% |  | 65.2 ± 9.9% | 
 | Cc1nc(-c2cccc(NS(=O)(=O)c3cccc4c(N(C)C)cccc34)c2)cs1 [PB635, 5-(dimethylamino)-N-(3-(2-methylthiazol-4-yl)phenyl)naphthalene-1-sulfonamide] | 46.9 ± 4.4% |  | 47 ± 13.5% | 
4 ± 2 µM (≈ 2.26 µg/mL) | CN1CCN(CC(=O)Nc2nc(-c3cccc(NS(=O)(=O)c4cccc5c(N(C)C)cccc45)c3)cs2)CC1 [PB638, N-(4-(3-((5-(dimethylamino)naphthalene)-1-sulfonamido)phenyl)thiazol-2-yl)-2-(4-methylpiperazin-1-yl)acetamide] | 0% | 37.5 ± 5.9% | 0.9 ± 1% | 
 | CN(C)c1cccc2c(S(=O)(=O)Nc3cccc(-c4csc(NC(=O)CN5CCOCC5)n4)c3)cccc12 [PB639, N-(4-(3-((5-(dimethylamino)naphthalene)-1-sulfonamido)phenyl)thiazol-2-yl)-2-morpholinoacetamide] | 24% | 100 ± 23.6% | 63.5 ± 16% | 
4.2 ± 0.4 µM (≈ 2.5 µg/mL) | CN(C)c1cccc2c(S(=O)(=O)Nc3cccc(-c4csc(NC(=O)CN5CCN(CCO)CC5)n4)c3)cccc12 [PB640, N-(4-(3-((5-(dimethylamino)naphthalene)-1-sulfonamido)phenyl)thiazol-2-yl)-2-(4-(2-hydroxyethyl)piperazin-1-yl)acetamide] | 0% | 54.2 ± 5.9% | 67 ± 10.6% | 
 | CN(C)c1cccc2c(S(=O)(=O)Nc3cccc(-c4csc(NC(=O)CN5CCC(C(N)=O)CC5)n4)c3)cccc12 [PB641, 1-(2-((4-(3-((5-(dimethylamino)naphthalene)-1-sulfonamido)phenyl)thiazol-2-yl)amino)-2-oxoethyl)piperidine-4-carboxamide] | 40% | 104 ± 5.9% | 105 ± 18.9% | 
3 ± 1 µM (≈ 1.58 µg/mL) | CN(C)c1cccc2c(S(=O)(=O)Nc3cccc(-c4csc(NC(=O)CNCCO)n4)c3)cccc12 [PB643, N-(4-(3-((5-(dimethylamino)naphthalene)-1-sulfonamido)phenyl)thiazol-2-yl)-2-((2-hydroxyethyl)amino)acetamide] | 0% | 108 ± 11.8% | 29.8 ± 6.5% | 
 | CN(C)c1cccc2c(S(=O)(=O)Nc3cccc(-c4csc(NC(=O)CNCCCN5CCOCC5)n4)c3)cccc12 [PB644, N-(4-(3-((5-(dimethylamino)naphthalene)-1-sulfonamido)phenyl)thiazol-2-yl)-2-((3-morpholinopropyl)amino)acetamide] | 8% | 83.3 ± 23.6% | 11.7 ± 1.2% | 
 | CCOP(=O)(NCC(=O)Nc1nc(-c2cccc(NS(=O)(=O)c3cccc4c(N(C)C)cccc34)c2)cs1)OCC [PB649, Diethyl-(2-((4-(3-((5-(dimethylamino)naphthalene)-1-sulfonamido)phenyl)thiazol-2-yl)amino)-2-oxoethyl)phosphoramidate] | 26.4 ± 4.5% |  | 77.7 ± 19.8% | 
 | CC(=O)Nc1nc(-c2ccc(F)c(NS(=O)(=O)c3cccc4c(N(C)C)cccc34)c2)cs1 [PB651, N-(4-(3-((5-(dimethylamino)naphthalene)-1-sulfonamido)-4-fluorophenyl)thiazol-2-yl)acetamide] | 25 ± 8.1% |  | 89.4 ± 5.6% | 
88 ± 3 µM (≈ 51.9 µg/mL) | CN(C)c1cccc2c(S(=O)(=O)Nc3cccc(-c4csc(NC(=O)CNCCS(=O)(=O)O)n4)c3)cccc12 [PB654, 2-((2-((4-(3-((5-(dimethylamino)naphthalene)-1-sulfonamido)phenyl)thiazol-2-yl)amino)-2-oxoethyl)amino)ethane-1-sulfonic] | 70 ± 13.8% |  | 89.4 ± 6.5% | 
 | CCCCCc1ccc(S(=O)(=O)Nc2cccc(-c3csc(NC(=O)CNCCN(C)C)n3)c2)cc1 [PB693, 2-((2-(dimethylamino)ethyl)amino)-N-(4-(3-((4-pentylphenyl)sulfonamido)phenyl)thiazol-2-yl)acetamide] |  |  |  | Induction of CHOP in comparison to control condition, Kyse70 (CHOP in Kyse 70 cells): +; Induction of CHOP in comparison to control condition, SH10TC (CHOP in SH10TC cells): −; IC50 (A375 melanoma cells [2]): 1 µM; Induction of CHOP in comparison to control condition, A375 [3]: ++; Induction of CHOP in comparison to control condition, Kato III (CHOP in KATO III cells): −
 | CN1CCN(CCCCCC(=O)Nc2nc(-c3cccc(NS(=O)(=O)c4cccc5c(N(C)C)cccc45)c3)cs2)CC1 [PB697, N-(4-(3-((5-(dimethylamino)naphthalene)-1-sulfonamido)phenyl)thiazol-2-yl)-6-(4-methylpiperazin-1-yl)hexanamide] |  |  |  | IC50 (A375 melanoma cells [2]): 2 µM
 | CN(C)c1cccc2c(S(=O)(=O)Nc3cccc(-c4csc(NC(=O)CCCCCN5CCN(CCO)CC5)n4)c3)cccc12 [PB698, N-(4-(3-((5-(dimethylamino)naphthalene)-1-sulfonamido)phenyl)thiazol-2-yl)-6-(4-(2-hydroxyethyl)piperazin-1-yl)hexanamide] |  |  |  | IC50 (A375 melanoma cells [2]): 1.75 µM
 | CCCCCc1ccc(S(=O)(=O)Nc2cccc(-c3csc(N4CCN(C)CC4)n3)c2)cc1 [PB707, N-(3-(2-(4-methylpiperazin-1-yl)thiazol-4-yl)phenyl)-4-pentylbenzenesulfonamide] |  |  |  | IC50 (A375 melanoma cells [2]): 2.5 µM
 | CCCCCc1ccc(S(=O)(=O)Nc2cccc(-c3csc(N4CCN(CCO)CC4)n3)c2)cc1 [PB708, N-(3-(2-(4-(2-hydroxyethyl)piperazin-1-yl)thiazol-4-yl)phenyl)-4-pentylbenzenesulfonamide] |  |  |  | IC50 (A375 melanoma cells [2]): 2.5 µM
